Data set [1] deals with Myzus persicae (green peach aphid). Briefly: Example B1: activity against Myzus persicae, sprayed sunflower leaf discs (feeding/residual contact, preventive). The settings on record: foliar, 144 h, read-out: activity (mortality).
Data set [2] deals with Diabrotica balteata (corn root worm). The data set is described as follows: Example B5: activity against Diabrotica balteata, larvicide on artificial diet in microtiter plate. Format: in vivo. The settings on record: 120 h, L2 larvae, 5 days, read-out: activity (larval mortality, antifeedant, growth regulation). As for the experimental part: Activity Against Diabrotica balteata (Corn Root Worm)
(Larvicide, Feeding/Residual Contact Activity, Preventive)
24-well microtiter plate (MTP) with artificial diet is treated with test solutions by pipetting. After drying, the MTP's are infested with larvae (L2)(6-10 per well). After an incubation period of 5 days, samples are checked for larval mortality, antifeedant and growth regulation.

For data set [3], the system named is Myzus persicae (green peach aphid). The data set is described as follows: Example B2: activity against Myzus persicae, pea seedling roots in test solution (systemic/feeding, curative). The conditions noted are these: 144 h, read-out: activity (mortality).
Data set [4] concerns Tetranychus urticae (two-spotted spider mite). The data set is described as follows: Example B3: activity against Tetranychus urticae, sprayed bean leaf discs (feeding/residual contact, preventive). Format: in vivo. The settings on record: foliar, 192 h, mixed population, 8 days, read-out: activity (egg, larval and adult mortality). From the text: Activity Against Tetranychus urticae (Two-Spotted Spider Mite)
(Mixed Population, Feeding/Residual Contact Activity, Preventive)
Bean leaf discs on agar in 24-well microtiter plates are sprayed with test solutions. […] 8 days later, discs are checked for egg mortality, larval mortality, and adult mortality. In this test, compounds listed in the Table A above show good activity. In particular compounds A1, A4, A5, A7, A8, A9, A10, A11, A12, A13 and A14 show an activity of over 80% at a concentration of 400 ppm.

For data set [5], the system named is Thrips tabaci (onion thrips). Briefly: Example B4: activity against Thrips tabaci, sprayed sunflower leaf discs (feeding/residual contact, preventive). The settings on record: foliar, 144 h, read-out: activity (mortality).
In data set [6] the test system is Nilaparvata lugens (brown rice planthopper). The data set is described as follows: Example B8: activity against Nilaparvata lugens, larvicide on rice seedlings (feeding/contact). Format: in vivo. The conditions noted are these: sprayed rice seedlings, N3 nymphs, 6-12 days, read-out: activity (mortality, growth regulation, effects on F1 generation). As for the experimental part:
Activity Against Nilaparvata lugens (Brown Rice Planthopper)
(Larvicide, Feeding/Contact)
Rice seedlings are treated with the diluted test solutions in a spray chamber. After drying, they are infested with 20 N3 nymphs (2 replicates). 6-12 days after the treatment samples are checked for mortality, growth regulation, and effects on the F1 generation. In this test, compounds listed in the Table A above show good activity. For example compounds A1, A2, A4, A7, A8, A9, A13 and A14 show an activity of over 80% at a concentration of 400 ppm.

The test system of data set [7] is Aphis Craccivora (cowpea aphid). Briefly: Example B15: activity against Aphis craccivora, pea seedling roots in test solution (systemic/feeding). Format: in vivo. The settings on record: 144 h, roots of infested pea seedlings in test solution, 6 days. From the text: Activity Against Aphis Craccivora (Cowpea Aphid)
(§1) (Mixed Population, Systemic/Feeding)
6 days later, samples are checked for mortality. In this test, compounds listed in Table A above show good activity. For example compounds A8, A9, A13 and A14 show an activity of over 80% at a concentration of 25 ppm.

The test system is the same in data set [8]. The data set is described as follows: Example B9: translaminar activity against Aphis craccivora on French bean leaves. Format: in vivo. The conditions noted are these: 120 h, upper leaf side painted, aphids on lower side, 5 days. As for the experimental part:
Translaminar Activity Against Aphis Craccivora (Cowpea Aphid)
French bean leaves (Phaseolus vulgaris) are infested with about 20 mixed age individuals on the lower leaf side using clip cages. 1 day after the infestation, the upper side of the leaves is treated with the test solution by painting. 5 days later, samples are checked for mortality.

In another data set the test system is pepper plants. The data set is described as follows: Example B12: plant damage evaluation (phytotoxicity) on sprayed pepper plants. The settings on record: in vivo, 6 days, 200 ppm.
Data set [9] deals with Myzus persicae (green peach aphid). The data set is described as follows: Example B12: activity against Myzus persicae on sprayed pepper plants (feeding/residual contact). It is filed as in vivo. The conditions noted are these: 144 h, 6 days.
The subject of data set [10] is cowpea aphid (Aphis craccivora). The data set is described as follows: Example B13: insecticide seed treatment of sugarbeet seeds, infestation with cowpea aphid. It is filed as in vivo. The conditions noted are these: 0.1 mg a.i./seed, infested after 14 days, counted 7 days later. The procedure: Insecticide Seed Treatment
Sugarbeet seeds are treated with test compounds at various rates (mg a.i./seed). The seeds are sown into pots filled with soil. After placing the seeds on the soil surface they are further covered with soil. Before and during the bioassays, the plants are grown under optimal greenhouse conditions. After 14 days, the plants are infested with cowpea aphid (Aphis craccivora) by placing one infested pea seedling containing approximately 150 aphids of a population of mixed developmental stages onto each plant. Seven days after infestation, the number of aphids is counted per plant. Each treatment group is replicated 10 times. Each replicate contains 1 plant.

Data set [11] relates to Aphis gossypii (cotton aphid). The data set is described as follows: Example B11: activity against Aphis gossypii, pea seedling roots in test solution (systemic/feeding). It is filed as in vivo. The settings on record: 144 h, roots of infested pea seedlings in test solution, 6 days.
Description: Activity Against Aphis gossypii (Cotton Aphid)
as §1
6 days later, samples are checked for mortality. In this test, compounds listed in Table A above show good activity.

Data set [12] relates to Aonidiella Aurantii (red scale). The data set is described as follows: Example B10: activity against Aonidiella aurantii, dipped potato tubers. It is filed as in vivo. The settings on record: 200 ppm, 6-8 weeks. From the text:
Activity Against Aonidiella Aurantii (Red Scale)
Treatment of potato tubers by dipping the in the test solution. One day later, tubers are infested with about 50 crawlers. 6-8 weeks after application samples are checked for the number of crawlers of the next generation (compared to the non treated samples). In this test, compounds listed in the Table A above show good activity.

Data set [13] deals with Bemisia tabaci (tobacco white fly). The data set is described as follows: Example B7: activity against Bemisia tabaci, larvicide on bean plants (contact/feeding). Format: in vivo. The settings on record: 200 ppm; bean plants with N-2 nymphs sprayed, three weeks. The procedure:
Activity Against Bemisia tabaci (Tobacco White Fly)
(Larvicide, Contact/Feeding)
Bean plants are infested with 20-30 adults that were removed after a 4 day egg-laying period. After another 7 days, bean plants with hatched nymphs (N−2) are treated (2 replicates) with the test solutions in a spray chamber. Three weeks later, samples are checked for number of emerged adults. Efficacy was calculeted by comparing number of emerged adults in treated and non treated samples.

For the compound `CON1CCC2(CC1)NC(=O)C(Cl)(c1cc(C)c(C)cc1Cl)C2=O` (stereo not drawn) [A12], the mortality at 400 ppm in data set [1], in [2], in data set [3], in data set [4] and in [5] was above 80% in each case.

In the case of `CON1CCC2(CC1)NC(=O)C(Cl)(c1c(C)cccc1C)C2=O` (stereo not drawn) [A8], the mortality at 400 ppm in data set [6], in data set [1], in [3], in data set [4], in [8] and in data set [5] was above 80% in each case. Further, the mortality at 25 ppm in data set [7] is above 80%. Further, the “damage to pepper plants (phytotoxicity, 0-100% rating scale)” value in the data set on pepper plants was at most 10%. The compound further returned a mortality at 200 ppm in data set [9] of at least 80%.

On to `CON1CCC2(CC1)NC(=O)C(Cl)(c1c(C)cc(Br)cc1Cl)C2=O` (stereo not drawn) [A7, 3-(4-bromo-2-chloro-6-methyl-phenyl)-3-chloro-8-methoxy-1,8-diaza-spiro[4.5]decane-2,4-dione], for which the mortality at 400 ppm in data set [6], in data set [1], in data set [3], in data set [4], in [8] and in data set [5] was above 80% each time. The “damage to pepper plants (phytotoxicity, 0-100% rating scale)” value with pepper plants is at most 10%. In data set [9], the mortality at 200 ppm is at least 80%.

For the compound `CON1CCC2(CC1)NC(=O)C(Cl)(c1cc(C)ccc1C)C2=O` (stereo not drawn) [A1, 3-chloro-3-(2,5-dimethyl-phenyl)-8-methoxy-1,8-diaza-spiro[4.5]decane-2,4-dione], the “efficacy in the reduction of aphids compared to untreated control plants” value in [10] is listed as “over 80%”. Moreover, the mortality at 25 ppm in data set [11] was above 80%. Besides, the mortality at 400 ppm in data set [6], in data set [1], in [2], in data set [3], in data set [4] and in data set [5] was above 80% each time. For the same compound, the “activity (number of crawlers of the next generation vs non treated)” value in data set [12] is “over 80%”. In addition, the “activity (efficacy, number of emerged adults vs non treated)” value in data set [13] is recorded as “over 80%”.

As to `CON1CCC2(CC1)NC(=O)C(Cl)(c1c(C)ccc(Cl)c1C)C2=O` (stereo not drawn) [A10], the mortality at 400 ppm in data set [1], in data set [4] and in data set [5] was above 80% each time.

The melting point is the temperature, or range, at which the solid turns liquid. As to `CON1CCC2(CC1)NC(=O)C(c1c(C)cc(C)cc1C)([N+](=O)[O-])C2=O` (stereo not drawn) [A16, 8-methoxy-3-nitro-3-(2,4,6-trimethyl-phenyl)-1,8-diaza-spiro[4.5]decane-2,4-dione], the melting point was 136 °C (dec.).

For `CON1CCC2(CC1)NC(=O)C(Cl)(c1cc(Br)c(C)cc1C)C2=O` (stereo not drawn) [A15], the mortality at 400 ppm in data set [1], in [3] and in data set [5] was above 80% each time.

For `CON1CCC2(CC1)NC(=O)C(Cl)(c1c(C)cc(C)cc1Cl)C2=O` (stereo not drawn) [A9], the mortality at 400 ppm in [6], in [1], in [3], in data set [4], in data set [8] and in data set [5] was above 80% each time. Also, the mortality at 25 ppm in data set [7] is above 80%.

As to `CON1CCC2(CC1)NC(=O)C(Cl)(c1c(C)cc(Br)cc1C)C2=O` (stereo not drawn) [A6], the mortality at 400 ppm in [1] is above 80%.

Regarding `CON1CCC2(CC1)NC(=O)C(Cl)(c1ccc(Cl)cc1Cl)C2=O` (stereo not drawn) [A3], the mortality at 400 ppm in [1] and in [3] was above 80% each time.

Regarding `CON1CCC2(CC1)NC(=O)C(Cl)(c1c(Br)cc(C)cc1Br)C2=O` (stereo not drawn) [A18], the mortality at 400 ppm in data set [1] and in data set [3] was above 80% each time.

As to `CON1CCC2(CC1)NC(=O)C(Cl)(c1c(C)cc(Cl)cc1C)C2=O` (stereo not drawn) [A5], the mortality at 400 ppm in data set [1], in data set [3], in data set [4] and in data set [5] was above 80% throughout. Moreover, in the data set with pepper plants, the “damage to pepper plants (phytotoxicity, 0-100% rating scale)” value is given as at most 10%. The compound also showed a mortality at 200 ppm in [9] of at least 80%.

For `CON1CCC2(CC1)NC(=O)C(Cl)(c1cc(C)c(C)cc1C)C2=O` (stereo not drawn) [A13], the mortality at 400 ppm in data set [6], in data set [1], in data set [2], in [3], in data set [4] and in data set [8] was above 80% each time. The mortality at 400 ppm in [5] was above 80%. In data set [7], the mortality at 25 ppm is above 80%. In the data set on pepper plants, the “damage to pepper plants (phytotoxicity, 0-100% rating scale)” value was at most 10%. In [9], this compound displayed a mortality at 200 ppm of at least 80%.

For `CON1CCC2(CC1)NC(=O)C(F)(c1cc(C)ccc1C)C2=O` (stereo not drawn) [A2, 3-(2,5-dimethyl-phenyl)-3-fluoro-8-methoxy-1,8-diaza-spiro[4.5]decane-2,4-dione], the mortality at 400 ppm in [6], in [1] and in data set [5] was above 80% in each case.

On to `CON1CCC2(CC1)NC(=O)C(Cl)(c1cc(C)c(Cl)cc1C)C2=O` (stereo not drawn) [A11], for which the mortality at 400 ppm in [1], in data set [2], in data set [4] and in data set [5] was above 80% in each case.

Consider `CON1CCC2(CC1)NC(=O)C(Cl)(c1c(C)cc(C)cc1C)C2=O` (stereo not drawn) [A14], for which the mortality at 400 ppm in [6], in data set [1], in data set [3], in [4], in data set [8] and in data set [5] was above 80% throughout. This compound also registered a mortality at 25 ppm in data set [7] above 80%.

The record behind these values is patent publication US20120035201A1, “SPIROHETEROCYCLIC PYRROLIDINE DIONE DERIVATIVES USED AS PESTICIDES” (SYNGENTA CROP PROTECTION LLC, priority 2009, published 2012).
